We go through four molecules from patent US20230414632A1, “INHIBITION OF THE HIV-1 REPLICATION BY COMPOUNDS DIRECTED AGAINST A NEW TARGET OF THE VIRAL CYCLE” (priority 2020, published 2023).

In one data set the test system is MT4 cells. Briefly: Cell survival / cellular toxicity in infected MT4 cells (flow cytometry). Conditions: up to 10 μM compound, day 5, MT4 cells. The class given is cell-based. The procedure: For HIV-1 gfp+ vectors, viral replication is followed by GFP expression [i.e. the percentage and geometric mean fluorescence intensity (MFI) of GFP^+ cells]. Infectivity was estimated by flow cytometry using a FACSCalibur™ cytofluorometer (BD Biosciences). Toxicity is also assessed by flow cytometry (side and forward scatter).
At J0 (day zero) MT4 cells was used for infection with HIV gfp+ virus at multiplicity of infection (m.o.i.) reaching 0.1-0.2 (50 ng of p24^gag antigen per 10^6 cells). Two days post-infection (J2), MT4 cells are washed extensively (3 times with PBS) and resuspended using fresh RPMI medium (2×10^5 cells per ml) and plated into 6 well plates (2 ml per well) in the presence of compounds of formula I or II at various molecules concentrations. A control not infected with the virus (MT4 Ninf), or brought into contact with DMSO (inf DMSO, the solvent of compounds of formula I or II), or with dolutegravir (DTG) at 100 nM, a known inhibitor of the integrase, are conducted in parallel. At time J5 (day five), cells are then collected for cytometry analysis to quantify the production of viral particles and cell survival.

The target of data set [1] is interaction between the HIV-1 integrase (IN) and the catalytic domain of the human mitochondrial lysyl-tRNA synthetase (mLysRS) (Homo sapiens (Human), UniProt P12497+Q15046). Put plainly: HTRF assay of the mLysRS:IN interaction. Format: binding, HIV-1 / human. The conditions noted are these: compound from 17 to 666 μM. The procedure:
Experiments were performed on the interaction between the HIV-1 integrase (IN) and the catalytic domain of the human mitochondrial lysyl-tRNA synthetase (mLysRS), which constitutes the main contribution to the Gag Pol:mLysRS interaction.
Homogeneous time-resolved fluorescence (HTRF) assays were performed in black, half-area, flat bottom, 96-well microplates (Costar #3694). Human mitochondrial LysRS with a C-terminal HA-tag (mLysRS-HA), diluted in HTRF buffer (10 mM Tris-HCl pH 7.5, 50 mM NaCl, 10 mM 2-mercaptoethanol, BSA at 1 mg/ml) was added (20 μl at a dimer concentration of 3.75 nM) in the wells of microplates placed on ice. Compounds of formula I or II (1 μl of a 10 mM solution in DMSO) were then added to the wells, and mixing was achieved by pipetting up and down 3-times 10 μl. […]
A 10 μl solution of KF prepared in HTRF buffer at a concentration of 250 mM was then added and mixing was achieved by pipetting up and down 3-times 20 μl. After centrifugation at 900 g for 3 min at 4° C., fluorescence of Eu^3+ cryptate and of XL665 was recorded at 620 nm (I620) and 665 nm (I665), respectively, after excitation of Eu^3+ cryptate at 317 nm, in an Infinite M1000 PRO microplate reader (TECAN). Results are expressed as the ratio of I665/I620. The HTRF signal corresponds to the ratio of fluorescence at 665 and 620 nm (I665/I620). […]
A general note: Time-resolved FRET reads energy transfer from a long-lived donor to a nearby acceptor.

The test system of data set [2] is HIV-1 gfp+ virus in MT4 cells. Put plainly: Ex-vivo inhibition of HIV-1 replication (multi-cycle, HIV-1 gfp+ in MT4 cells, flow cytometry). The class given is cell-based. Conditions: 10 μM compound, day 5, MT4 cells infected with HIV gfp+. As for the experimental part:
Ability of compounds of formula I or II to inhibit the HIV-1 replicative cycle ex vivo was conducted by methods commonly used in antiretroviral pharmacology.
MT4 cell line (Charneau et al. J. Virol. 1992, 66:2814) were maintained in RPMI 1640. HEK293T were maintained in Dulbecco's Modified Eagle Medium (DMEM). All media were supplemented with Glutamax and with 10% heat-inactivated fetal calf serum (Hyclone) and 1% penicillin/streptomycin (100 units/mL) (Gibco). All media were purchased from Gibco (Life Technologies Co.). All cell lines used here were incubated at 37° C., under 5% CO2 atmosphere. […]
For HIV-1 gfp+ vectors, viral replication is followed by GFP expression [i.e. the percentage and geometric mean fluorescence intensity (MFI) of GFP^+ cells]. […] Toxicity is also assessed by flow cytometry (side and forward scatter).
At J0 (day zero) MT4 cells was used for infection with HIV gfp+ virus at multiplicity of infection (m.o.i.) reaching 0.1-0.2 (50 ng of p24^gag antigen per 10^6 cells). […] At time J5 (day five), cells are then collected for cytometry analysis to quantify the production of viral particles and cell survival.
On the technique in general: Flow cytometry measures light scatter and fluorescence of single cells or particles in a stream.

Chain of interaction between the HIV-1 integrase (IN) and the catalytic domain of the human mitochondrial lysyl-tRNA synthetase (mLysRS) (Q15046 whole entry, looked up, other chains not shown, the tested form may be a part): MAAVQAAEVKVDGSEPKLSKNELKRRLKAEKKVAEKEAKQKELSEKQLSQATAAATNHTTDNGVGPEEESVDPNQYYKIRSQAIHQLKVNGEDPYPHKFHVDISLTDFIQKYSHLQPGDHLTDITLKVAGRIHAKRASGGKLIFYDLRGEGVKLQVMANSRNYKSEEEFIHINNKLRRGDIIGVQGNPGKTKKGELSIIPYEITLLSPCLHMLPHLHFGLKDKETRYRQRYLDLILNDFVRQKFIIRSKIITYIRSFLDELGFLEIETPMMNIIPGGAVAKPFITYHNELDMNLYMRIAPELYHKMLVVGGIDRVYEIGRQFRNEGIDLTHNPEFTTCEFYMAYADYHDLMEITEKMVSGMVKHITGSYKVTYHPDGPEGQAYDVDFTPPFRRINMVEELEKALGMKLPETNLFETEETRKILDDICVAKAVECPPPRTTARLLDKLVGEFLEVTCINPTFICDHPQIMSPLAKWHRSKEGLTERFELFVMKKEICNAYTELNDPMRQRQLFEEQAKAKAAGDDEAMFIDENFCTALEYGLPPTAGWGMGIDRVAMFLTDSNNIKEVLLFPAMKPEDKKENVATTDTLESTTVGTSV

As to `COCCOC(=O)C1=C(C)NC(C)=C(C(=O)OC/C=C/c2ccccc2)C1c1cccc([N+](=O)[O-])c1` (stereo not drawn) [I-b], the cellular toxicity result in the data set with MT4 cells was “no cellular toxicity has been observed”.

Take `CCOC(=O)C1=C(C)NC(C)=C(C(=O)OCC)C1c1ccccc1/C=C/C(=O)OC(C)(C)C` [I-a]: the cellular toxicity entry with MT4 cells is “no cellular toxicity has been observed”.

For the molecule `CC1=C(C(=O)OC(C)C)C(c2cccc([N+](=O)[O-])c2)C(C(=O)OC2CN(C(c3ccccc3)c3ccccc3)C2)=C(N)N1` (stereo not drawn) [I-d], the concentration for half-maximal inhibition (IC50) (as a rule, the midpoint of a concentration-inhibition curve) in data set [1] stood at 400 ± 150 µM.

On to `CN1CCCC(n2nc(Cc3ccc(Cl)cc3)c3ccccc3c2=O)CC1` (stereo not drawn) [II-a], for which the “production of viral particles” value in data set [2] is “greatly reduced”. The IC50 in data set [1] is 300 ± 50 µM. Moreover, the cellular toxicity entry in the data set with MT4 cells is listed as “no cellular toxicity has been observed”.
